Data from patent US20230134760A1, “CAR AND NRF2 DUAL ACTIVATOR AGENTS FOR CYCLOPHOSPHAMIDE-BASED AND DOXORUBICIN-BASED TREATMENTS OF CANCER” (priority 2020, published 2023).

Columns and labels:
Nrf2 = Nrf2 expression and nuclear translocation in H9c2 cardiomyocytes (Western blot); type: cell-based, rat
Description: Protein was harvested using cell lysis buffer (Cell Signaling Technology, Danvers, Mass.) with a complete protease inhibitor cocktail (Roche, Mannheim, Germany) prior to homogenizing via sonification. Homogenized protein from treated HPH, H9c2, BT549, and MDA-MB-231 cells were resolved on NuPage Novex Bis-Tris 4-12% gels (Life Technologies) or NuPage Novex Bis-Tris 12% gel and transferred through electrophoresis onto immobilon-P polyvinylidene difluoride (PVDF) membranes. Membranes were blocked with 5% BSA or 5% milk in Tris-Buffer saline with Tween 20 (TBST). Further, membranes were incubated with specific antibodies against human CYP2B6 (1:1000, Abcam), CYP3A4 (1:1000, Millipore Sigma), HO-1 (1:1000, Abcam), cleaved caspase-3 (1:1000 Cell Signaling Technologies), Nrf2 (1:1000, Abcam), TATA-Binding Protein (1:500, Santa Cruz) β-actin (1:3000, Millipore Sigma) at 4° C. overnight. Following overnight incubation, horseradish peroxidase goat anti-mouse or anti-rabbit IgG antibodies were used for secondary incubation. Membranes were developed using SuperSignal West Pico Chemiluminescent Substrate (Thermo Scientific) or Radiance Q (Azure). Two TNBC cell lines, cardiomyocytes, and HPH protein samples were isolated and resolved on a 4-12% or 12% SDS PAGE gel followed by electrophoretic transfer to a PVDF membrane. […]

HPH/BT549 coculture = experiment: LC-MS/MS determination of 4-OH-CPA formation in HPH/BT549 coculture medium; type: cell-based, human; conditions: DL7076 10 μM
Description: During the pre-treatment time, BT549 cells were seeded at 0.8×10^5 on collagen-coated coverslips modified to have their corners bent (FIG. 40a). […] 200 μL of cell culture medium was removed from each treatment group was immediately mixed with 20 μL of semicarbazide (SCZ; 2M) to stabilize 4-OH-CPA to its derivative 4-OH-CPA-SCZ. Once removed, samples were vortexed and left at room temperature for 10 minutes. 2 μM HMP was added as an internal standard and 200 μL acetonitrile was used to precipitate protein. Mass transitions were monitored at m/z: 261-140 for CPA, m/z: 334-221 for 4-OH-CPA-SCZ, and m/z: 180-135 for HMP under the positive multiple reaction monitoring mode.

**Q.** Which Nrf2 nuclear accumulation (Nrf2; nuclear extracts of H9c2, 1, 5, 10 μM) does the source give for `O=C(NCCN=C=S)c1c(-c2ccc3ccccc3c2)nc2sccn12` [DL7076, N-(2-Isothiocyanatoethyl)-6-(naphthalen-2-yl)imidazo[2,1-b]thiazole-5-carboxamide] here?
**A.** accumulating in a concentration dependent manner within the nucleus

**Q.** And the Nrf2 expression (Nrf2; whole H9c2 cell lysates, 1, 5, 10 μM)?
**A.** increased Nrf2 expression in a concentration dependent manner

**Q.** And the “rate and extent of CPA biotransformation to 4-OH-CPA” value (HPH/BT549 coculture; coculture medium)?
**A.** increased rate and extent of CPA biotransformed

**Q.** And the 4-OH-CPA formation (HPH/BT549 coculture; fixed CPA 500 μM, 2 to 24 hours)?
**A.** enhanced 4-OH-CPA formation in the coculture medium at all time points
